We go through 22 molecules from ChEMBL document CHEMBL5154839, “Discovery of a selective and covalent small-molecule inhibitor of BFL-1 protein that induces robust apoptosis in cancer cells” (Eur J Med Chem, 2022).

Experiment [1] deals with T1, Bcl-2-related protein A1 (Homo sapiens, UniProt Q16548).
T1 sequence (Q16548 whole entry): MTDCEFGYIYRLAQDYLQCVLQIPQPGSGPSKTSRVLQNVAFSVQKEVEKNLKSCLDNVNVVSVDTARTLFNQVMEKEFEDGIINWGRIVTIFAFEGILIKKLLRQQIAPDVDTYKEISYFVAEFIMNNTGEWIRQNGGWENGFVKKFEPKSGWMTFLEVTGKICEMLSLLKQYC
Nature of the experiment: Displacement of fluorescein tagged BID BH3 peptide from His-tagged recombinant BFL-1 (1 to 151 residues) (unknown origin) expressed in Escherichia coli BL21 (DE3) assessed as inhibition constant incubated for 24 hrs by fluorescence polarization-based competitive binding assay. (In general: In fluorescence polarisation assays a small probe gives low polarisation when free and higher when bound to something large.)

The target of a further experiment is Bcl-2-like protein 2 (Homo sapiens, UniProt Q92843). Nature of the experiment: Displacement of fluorescent-labeled BID-BH3 peptide from human BCL-W expressed in Escherichia coli BL21 (DE3) assessed as inhibition constant by fluorescence polarization-based competitive binding assay.
Experiment [2] deals with T1, Bcl-2-related protein A1. Briefly: Displacement of fluorescent-labeled BID-BH3 peptide from His-tagged human BFL-1 (1 to 151 residues) expressed in Escherichia coli BL21 (DE3) assessed as inhibition constant by fluorescence polarization-based competitive binding assay.
In the next experiment the target is Bcl-2-like protein 1 (Homo sapiens, UniProt Q07817). Nature of the experiment: Displacement of fluorescent-labeled BID-BH3 peptide from human BCL-xL expressed in Escherichia coli BL21 (DE3) assessed as inhibition constant by fluorescence polarization-based competitive binding assay.
For experiment [3], the target named is Apoptosis regulator Bcl-2 (Homo sapiens, UniProt P10415). Nature of the experiment: Displacement of fluorescent-labeled BID-BH3 peptide from human BCL-2 expressed in Escherichia coli BL21 (DE3) assessed as inhibition constant by fluorescence polarization-based competitive binding assay.
The test system of the next experiment is Raji. Briefly: Growth inhibition of human Raji cells incubated for 4 days by WST assay. The class given is functional, cell-based. The conditions noted are these: 96 h.
For a further experiment, the system named is MV4-11. Briefly: Growth inhibition of human MV4-11 cells incubated for 4 days by WST assay. The conditions noted are these: MV4-11, 96 h. The class given is functional, cell-based.
The nature of experiment [4]: Displacement of fluorescein tagged BID BH3 peptide from His-tagged recombinant BFL-1 (1 to 151 residues) C55A mutant (unknown origin) expressed in Escherichia coli BL21 (DE3) assessed as inhibition constant incubated for 24 hrs by fluorescence polarization-based competitive binding assay. The arrangement: species or system Homo sapiens.
For the next experiment, the system named is MM1.S. Nature of the experiment: Growth inhibition of human MM1.S cells incubated for 4 days by WST assay. The format is functional, cell-based. The conditions noted are these: 96 h.
In a further experiment the test system is HL-60. Nature of the experiment: Growth inhibition of human HL-60 cells incubated for 4 days by WST assay. The class given is functional, cell-based. The note with it: HL-60, 96 h.
The test system of another experiment is Kasumi 1. Briefly: Growth inhibition of human Kasumi 1 cells incubated for 4 days by WST assay. The note with it: Kasumi 1, 96 h. The format is functional, cell-based.
The next experiment deals with K562. Nature of the experiment: Growth inhibition of human K562 cells incubated for 4 days by WST assay. The class given is functional, cell-based. The conditions noted are these: K562, 96 h.
The subject of the next experiment is RPMI-8226. Briefly: Growth inhibition of human RPMI-8226 cells incubated for 4 days by WST assay. The class given is functional, cell-based. The note with it: RPMI-8226, 96 h.
For experiment [5], the system named is U-937. Briefly: Growth inhibition of human U-937 cells incubated for 4 days by WST assay. The format is functional, cell-based. The conditions noted are these: U-937, 96 h.
Experiment [6] has as its target T1, Bcl-2-related protein A1.
Description: Inhibition of His-tagged human BFL-1(1 to 151 residues) expressed in Escherichia coli BL21 (DE3) by fluorescence polarization-based binding assay
Experiment [7] concerns the target Induced myeloid leukemia cell differentiation protein Mcl-1 (Homo sapiens, UniProt Q07820). Briefly: Displacement of fluorescent-labeled BID-BH3 peptide from His-tagged human MCL-1 expressed in Escherichia coli BL21 (DE3) assessed as inhibition constant by fluorescence polarization-based competitive binding assay.
In experiment [8] the test system is U-937. Briefly: Induction of apoptosis in human U-937 cells assessed as necrotic cells at 10 uM measured after 4 hrs by Annexin PI staining based flow cytometry method (reference value: 0.00 %). The format is functional.
In experiment [9] the test system is U-937. Briefly: Induction of apoptosis in human U-937 cells assessed as late apoptotic cells at 20 uM measured after 4 hrs by Annexin PI staining based flow cytometry method (reference value: 1.62 %). The class given is functional. For orientation: In flow cytometry, cells or beads pass a laser one at a time.
The test system of experiment [10] is U-937. Briefly: Induction of apoptosis in human U-937 cells assessed as necrotic cells at 60 uM measured after 4 hrs by Annexin PI staining based flow cytometry method (reference value: 0.00 %). The class given is functional.
For experiment [11], the system named is U-937. Briefly: Induction of apoptosis in human U-937 cells assessed as early apoptotic cells at 10 uM measured after 4 hrs by Annexin PI staining based flow cytometry method (reference value: 1.95 %). The format is functional.
Experiment [12] has as its system U-937. Briefly: Induction of apoptosis in human U-937 cells assessed as late apoptotic cells at 60 uM measured after 4 hrs by Annexin PI staining based flow cytometry method (reference value: 1.62 %). The format is functional.
The test system of experiment [13] is U-937. Briefly: Induction of apoptosis in human U-937 cells assessed as early apoptotic cells at 20 uM measured after 4 hrs by Annexin PI staining based flow cytometry method (reference value: 1.95 %). The class given is functional.
Experiment [14] relates to U-937. Briefly: Induction of apoptosis in human U-937 cells assessed as late apoptotic cells at 10 uM measured after 4 hrs by Annexin PI staining based flow cytometry method (reference value: 1.62 %). The class given is functional.
In experiment [15] the test system is U-937. Nature of the experiment: Induction of apoptosis in human U-937 cells assessed as early apoptotic cells at 40 uM measured after 4 hrs by Annexin PI staining based flow cytometry method (reference value: 1.95 %). The class given is functional.
Experiment [16] relates to U-937. Briefly: Induction of apoptosis in human U-937 cells assessed as necrotic cells at 40 uM measured after 4 hrs by Annexin PI staining based flow cytometry method (reference value: 0.00 %). The class given is functional.
The subject of experiment [17] is U-937. Briefly: Induction of apoptosis in human U-937 cells assessed as necrotic cells at 20 uM measured after 4 hrs by Annexin PI staining based flow cytometry method (reference value: 0.00 %). The class given is functional.
The test system of experiment [18] is U-937. Nature of the experiment: Induction of apoptosis in human U-937 cells assessed as early apoptotic cells at 60 uM measured after 4 hrs by Annexin PI staining based flow cytometry method (reference value: 1.95 %). The format is functional.
Experiment [19] relates to U-937. Briefly: Induction of apoptosis in human U-937 cells assessed as late apoptotic cells at 40 uM measured after 4 hrs by Annexin PI staining based flow cytometry method (reference value: 1.62 %). The class given is functional.

Sequence of Apoptosis regulator Bcl-2 (P10415 whole entry): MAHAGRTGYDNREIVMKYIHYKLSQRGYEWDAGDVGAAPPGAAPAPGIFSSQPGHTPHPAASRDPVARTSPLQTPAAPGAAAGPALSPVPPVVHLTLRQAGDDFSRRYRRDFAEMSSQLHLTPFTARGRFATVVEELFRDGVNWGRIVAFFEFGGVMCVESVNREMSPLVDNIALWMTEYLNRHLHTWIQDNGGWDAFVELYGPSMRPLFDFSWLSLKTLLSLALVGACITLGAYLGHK
Sequence of Bcl-2-like protein 2 (Q92843 whole entry, the tested form may be a part): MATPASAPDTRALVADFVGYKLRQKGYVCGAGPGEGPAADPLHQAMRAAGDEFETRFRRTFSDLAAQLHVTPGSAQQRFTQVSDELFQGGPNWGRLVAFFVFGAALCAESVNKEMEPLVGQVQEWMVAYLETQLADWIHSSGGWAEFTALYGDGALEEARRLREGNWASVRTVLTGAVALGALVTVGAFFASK
Sequence of Induced myeloid leukemia cell differentiation protein Mcl-1 (Q07820 whole entry): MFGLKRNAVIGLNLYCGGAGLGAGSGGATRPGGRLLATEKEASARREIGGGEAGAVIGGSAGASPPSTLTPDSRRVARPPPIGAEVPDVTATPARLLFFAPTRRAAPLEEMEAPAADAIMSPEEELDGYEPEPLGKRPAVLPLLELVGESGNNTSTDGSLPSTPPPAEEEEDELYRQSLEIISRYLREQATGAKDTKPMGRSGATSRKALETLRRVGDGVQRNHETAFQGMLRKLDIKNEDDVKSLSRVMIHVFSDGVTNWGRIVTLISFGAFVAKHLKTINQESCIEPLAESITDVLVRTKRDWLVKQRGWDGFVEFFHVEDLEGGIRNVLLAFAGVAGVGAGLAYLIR
Sequence of Bcl-2-like protein 1 (Q07817 whole entry): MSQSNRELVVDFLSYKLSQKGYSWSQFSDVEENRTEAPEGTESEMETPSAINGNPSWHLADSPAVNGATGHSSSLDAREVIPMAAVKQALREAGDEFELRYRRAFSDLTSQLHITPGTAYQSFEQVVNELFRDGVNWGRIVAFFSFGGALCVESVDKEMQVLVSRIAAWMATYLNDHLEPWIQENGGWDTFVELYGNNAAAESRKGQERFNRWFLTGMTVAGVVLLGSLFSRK

For `COc1cccc(Cn2nc3cc(-c4cccc(F)c4)ccc3c2N2CCNCC2)c1`, the Ki – broadly, the dissociation constant of the complex between target and ligand, obtained from inhibition or displacement – at Bcl-2-related protein A1 [1] worked out at 3.01 µM.
In the case of `CN1CCN(C2=C(Cl)C(=O)N(c3ccc(Cl)c(Cl)c3)C2=O)CC1`, the Ki worked out at 12.5 µM at Bcl-2-like protein 2, 0.4 µM on Bcl-2-related protein A1 [2], 50 µM at Bcl-2-like protein 1 and 12.5 µM in experiment [3].
Take `C=CC(=O)N1CCN(c2c3ccc(-c4cccc(F)c4)cc3nn2Cc2ccc(C(=O)O)cc2)CC1`: the Ki at Bcl-2-related protein A1 [1] was more than 100 µM.
On the same count and under the same terms, under `C=CC(=O)N1CCN(c2c3ccc(-c4cccc(F)c4)cc3nn2CCCOC)CC1` stands more than 100 µM; under `C=CC(=O)N1CCN(c2c3ccc(-c4cccc(F)c4)cc3nn2Cc2ccc(O)cc2)CC1`, 10.2 µM.
`CC(C)(C)c1ccc(CN2CCN(S(=O)(=O)Nc3ccc(SCCc4ccccc4)cc3C(=O)O)CC2)cc1`: the IC50 (in general, the concentration that gives 50% inhibition) in the experiment on Raji came to 51.5 µM; in the experiment with MV4-11, 20.8 µM; with MM1.S, 32.6 µM; with HL-60, 32.8 µM; in the experiment with Kasumi 1 it was 20.3 µM; in the experiment on K562, 18.9 µM. Moreover, the IC50 with RPMI-8226 is 21.3 µM; in the experiment on U-937 [5], 19.9 µM. The Ki in experiment [4] came to 2.28 µM.
In the case of `C=CC(=O)N1CCN(c2c3ccc(-c4cccc(F)c4)cc3nn2Cc2cccc(O)c2)CC1`, on Bcl-2-related protein A1 [1], the Ki was 18.4 µM.
For the molecule `CC(=O)NC(Cc1c[nH]c2ccccc12)C(=O)NCCSSCCN(C)C` (stereo not given), the IC50 on Bcl-2-related protein A1 [6] was determined as 1.3 µM.
Consider `C=CC(=O)N1CCN(c2c3ccc(-c4cccc(F)c4)cc3nn2Cc2cccc(Cl)c2)CC1`, for which, at Bcl-2-related protein A1 [1], the Ki was more than 100 µM.
The same measure, in the same setting: next, `C=CC(=O)N1CCN(c2c3ccc(-c4cccc(F)c4)cc3nn2Cc2cccc(C#N)c2)CC1`: 3.34 µM; `C=CC(=O)N1CCN(c2c3ccc(-c4cccc(F)c4)cc3nn2CCC)CC1`: 1.13 µM.
Same read-out and setting: next, `C=CC(=O)N1CCN(c2c3ccc(-c4cccc(F)c4)cc3nn2Cc2ccc(C#N)cc2)CC1`: 3.23 µM; `C=CC(=O)N1CCN(c2c3ccc(-c4cccc(F)c4)cc3nn2Cc2ccc(OC)cc2)CC1`: more than 100 µM.
`CC1(C)CCC(CN2CCN(c3ccc(C(=O)NS(=O)(=O)c4ccc(NCC5CCOCC5)c([N+](=O)[O-])c4)c(Oc4cnc5[nH]ccc5c4)c3)CC2)=C(c2ccc(Cl)cc2)C1` [VENETOCLAX]: the Ki in experiment [7] was more than 0.444 µM.
Consider `C=CC(=O)N1CCN(c2c3ccc(-c4cccc(F)c4)cc3nn2CCCN(C)C)CC1`, for which, at Bcl-2-related protein A1 [1], the Ki was 18.1 µM.
As for `CCC(=O)N1CCN(c2c3ccc(-c4cccc(F)c4)cc3nn2Cc2ccccc2)CC1`, the Ki on Bcl-2-related protein A1 [1] is 24.1 µM; in [4], more than 200 µM. Moreover, the Activity in the experiment on U-937 [8] is reported as 0.16%; in the experiment with U-937 [9], 1.8%; in the experiment on U-937 [10], 0.03%; in the experiment with U-937 [11], 1.96%; in the experiment on U-937 [12], 2.06%; with U-937 [13], 2.79%. Further, the Activity in the experiment with U-937 [14] was determined as 2.02%; in the experiment with U-937 [15], 3.14%; in the experiment on U-937 [16] it was 0.03%; in the experiment on U-937 [17] it was 0.05%; in the experiment on U-937 [18], 3.65%; in the experiment on U-937 [19], 1.57%. The concentration for half-maximal inhibition (IC50) in the experiment with Raji is 48.2 µM; in the experiment on MV4-11 it was 8.9 µM; in the experiment with MM1.S, 16.8 µM; in the experiment on HL-60, 28.9 µM; in the experiment with Kasumi 1, 7.1 µM; in the experiment with K562 it was 10.4 µM. The IC50 worked out at 11.8 µM in the experiment on RPMI-8226 and 9.3 µM in the experiment on U-937 [5].
As to `C=CC(=O)N1CCN(c2c3ccc(-c4cccc(F)c4)cc3nn2CC)CC1`, at Bcl-2-related protein A1 [1], the Ki was 2.85 µM.
Same read-out and setting: next, `C=CC(=O)N1CCN(c2c3ccc(-c4cccc(F)c4)cc3nn2Cc2ccc(Cl)cc2)CC1`: more than 100 µM.
The same measure, in the same setting: under `C=CC(=O)N1CCN(c2c3ccc(-c4cccc(F)c4)cc3nn2CCCO)CC1` stands 2.41 µM; under `C=CC(=O)N1CCN(c2c3ccc(-c4cccc(F)c4)cc3nn2Cc2cccc(C(=O)O)c2)CC1`, more than 100 µM.
On the same count and under the same terms, under `C=CC(=O)N1CCN(c2c3ccc(-c4cccc(F)c4)cc3nn2CCC(C)(C)C)CC1` stands more than 100 µM.
Turning to `CSc1ccc(C(Nc2ccccn2)c2c(C)[nH]c3ccccc23)cc1` (stereo not given), the results for the Ki (on Bcl-2-related protein A1 [2]; in experiment [3]) were 2.9 µM and 12.9 µM, respectively.
